In patent US10293001B2, “Compositions and methods for restoring or rejuvenating stem/progenitor cell function” (University of Pittsburgh—Of the Commonwealth System of …, priority 2012, dated 2019):

Assays:
Ercc1^−/− MEFs = experiment: Reversal of senescence (SA-β-gal) of Ercc1−/− MEFs; assay type: cell-based, mouse; conditions: within 24 hours of treatment
aged WT MDSPCs = experiment: Myogenic fusion of aged MDSPCs with IKKβ inhibition; assay type: cell-based, mouse; set-up: dose or concentration left out as unconfirmed; conditions: under fusion conditions
Source text: To determine further whether the NF-κB signaling pathway plays a role in driving age-related stem cell dysfunction, whether pharmacologic inhibition of IKK-β would restore the myogenic potential of aged WT MDSPCs was examined. […] MDSPCs were isolated from 30 month old p65^+/− and 24 month old WT mice and compared the myogenic potential of 30 month old p65^+/− MDSPCs in vitro to naturally aged WT MDSPCs. The results confirmed that MDSPCs from p65^+/− aged mice (30 month) were more myogenic than MDSPCs from 24 month old WT mice.

Ercc1^−/Δ mice = experiment: Chronic treatment with mitochondrial radical scavenger in progeroid mice; assay type: in vivo, mouse

Structure (SMILES): O=C(c1ccc(Nc2nccc(-c3cc4ccccc4s3)n2)cc1)N1CCC(N2CCCC2)CC1 [IKKiVII]
- reversing senescence of Ercc1−/− MEFs (>60% of cells SA-β gal+) (Ercc1^−/− MEFs): could be reversed

Structure (SMILES): NC(=O)Nc1sc(-c2ccc(F)cc2)cc1C(N)=O [IKKβ inhibitor IV]
- fusion index of aged MDSPCs (aged WT MDSPCs): significantly increased

Structure (SMILES): CC(C)C[C@@H](/C=C/[C@H](Cc1ccccc1)C(=O)N1CCC[C@H]1C(=O)N[C@H](C(=O)N[C@@H](CCCNC(=O)OCc1ccccc1)C(=O)NC1CC(C)(C)N([O])C(C)(C)C1)C(C)C)NC(=O)OC(C)(C)C [XJB-5-131]
- onset of aging-related degenerative changes (Ercc1^−/Δ mice): delay the onset
